These results are taken from a melting point compilation (Tetko et al.; mined from patent text by program, amines drawn as free bases though some values may be those of a salt).

As for `CCOC(=O)c1c(CC)nn2c(-c3cccc(C(F)(F)F)c3)ccnc12`, the melting point – broadly, the temperature of the solid-liquid transition – lay in the range of 142 to 143 °C.
For `CCCn1cc(NC(=O)C(N)c2ccc3c(c2)C(C)(C)CCC3(C)C)cc1C(=O)OC` (configuration not stated) the value was 152 to 153 °C.
For `Cn1c(CC(=O)O)ccc1C(=O)c1ccc(C#N)cc1` the value was 196 to 198 °C; for `O=[N+]([O-])c1cccc2nc3c(nc12)OCC1CCCCN31` (configuration not stated), 205 to 207 °C.
For the molecule `CC(=O)NCCc1ccc(C=O)cc1`, the melting point was 81 to 83 °C.
In turn, `CCc1c(OC)cc(C2CNC(=O)C2)cc1OC` (configuration not stated) showed a melting point of 156 °C.
Turning to `CCOC(=O)c1nc(-c2ccc(CN(C)C)cc2)[nH]c1-c1ccc(Cl)cc1`, the melting point lay in the range of 117 to 118 °C.
Consider `Nc1nc2ccccc2c2c1nc(-c1ccccc1)n2CCCCNS(=O)(=O)c1ccc(F)cc1`, for which the melting point is 214 to 216 °C.
`COC(=O)CCc1oc2ccc(C#N)cc2c1C(=O)c1ccc(O)cc1` showed a melting point of 156 to 158 °C.
In the case of `Fc1cccc(C(F)(F)F)c1N(CC1CC1)C1=NCCN1`, the melting point lay in the range of 126 to 127 °C.
`Cc1cc(C2=CCN(S(=O)(=O)C(C)(C)C(=O)O)CC2)ccc1-c1cnc2ccccc2c1` gave a melting point of 222 to 224 °C.
In the case of `CC(C)(O)C(CS(=O)(=O)c1ccccc1)C(F)(F)F` (configuration not stated), the melting point lay within 59 to 60 °C.
In turn, `Cc1ccc2c3c(ccc2n1)OC[C@H](CNC[C@H]1CCc2c(c4cc(F)ccc4n2C)C1)O3` came in with a melting point of 127 to 129 °C.
As to `O=C(Nc1ccc(Cl)cn1)c1nc(-c2ccccc2)c2ccccc2c1O`, the melting point fell in the range of 249 to 251 °C.
For `O=C(O)C=Cc1ccc(-n2ccccc2=O)cc1` the value was 279 to 282 °C.
Turning to `CCCC(=O)Oc1ccc2nc(S(N)(=O)=O)sc2c1`, the melting point lay within 122 to 123 °C.
Regarding `CC(C)(C)[C@H]1CC[C@H](N(Cc2ccc(C(=O)NC[C@H](O)C(=O)O)cc2)C(=O)Nc2cc(C(F)(F)F)cc(C(F)(F)F)c2)CC1`, the melting point is 185 to 187 °C.
For `COc1cc(Nc2nccc(-c3ccc(N4CC(O)C4)nc3)n2)cc(OC)c1OC` the value was 186 to 187 °C; for `C=Cc1cc2c(cc1Cl)C=C(C(=O)O)C(C(F)(F)F)O2` (configuration not stated), greater than 200 °C; for `CCc1nc2c(C)cc(C)nc2n1Cc1ccc(C(c2ccccc2)C(CO)c2nnn[nH]2)cc1` (configuration not stated), 128 to 132 °C.
For `CC(C)n1nc(-c2cnc(N)nc2-c2c(F)cccc2F)ccc1=O` the value was 244 °C; for `COC=C(C(=O)OC)c1ccccc1O`, 125 to 126 °C.
For the molecule `Cc1ccc(OCc2ccccc2)c(C(CCO)c2ccccc2)c1` (configuration not stated), the melting point is 69 to 71 °C.
In the case of `NNC1CCC(c2ccccc2F)c2cc(Cl)ccc2N1` (configuration not stated), the melting point was 213 to 215 °C.
For `CC1(C)CCC(C)(C)c2cc([N+](=O)[O-])c([N+](=O)[O-])cc21` the value was 200 °C.
Molecule `CC(C)(C)c1cc(C(=O)NN(C(=O)O)C(C)(C)C)cc(C(C)(C)C)c1O` gave a melting point of 196 °C.
For `CC(CCn1c(=O)[nH]c2ccccc21)N1CCC(CC(=O)c2ccc(F)cc2)CC1` (configuration not stated), the melting point stood at 185 °C.
For `COC(=O)c1ccccc1NC(=O)NCC1(c2ccccc2)CCCCC1`, the melting point is 91 to 94 °C.
Regarding `C=CC1(F)CN(C2CCCC2)c2nc(Nc3ccc(C(=O)NN4CCN(C)CC4)cc3OC)ncc2N(C)C1=O` (configuration not stated), the melting point fell in the range of 253 to 263 °C.
Molecule `CC(C)(C)C(=O)Nc1nc(O)c2c(C#C[Si](C)(C)C)c[nH]c2n1` showed a melting point greater than 300 °C.
The molecule `COC(=O)C(Br)c1ccc(S(C)(=O)=O)cc1` (configuration not stated) returned a melting point of 81.8 to 83.3 °C.
`CCCCNc1c(C(=O)O)cnc2[nH]ncc12` registered a melting point of 225 °C.
Molecule `N#CN=C(NCCC(=O)O)Nc1ccc2nonc2c1` returned a melting point of 92 °C.
Turning to `CCOC(=O)c1cn(C)c2cc(CC)ccc2c1=O`, the melting point lay in the range of 92 to 94 °C.
Turning to `O=C(Nc1ccc(OCCCN2CCCC2=O)c2ccccc12)c1cc(F)cc(N2CCCCC2)c1`, the melting point fell in the range of 88 to 89 °C.
In the case of `CCc1nc2c(C)cc(C)nc2n1Cc1ccc(C(=C(Br)C(=O)O)c2ccccc2)cc1`, the melting point lay in the range of 125 to 129 °C.
The molecule `Cc1ncsc1C(C)(O)c1ccccc1` (configuration not stated) gave a melting point of 128 to 130 °C.
For `COC(=O)C(=CC(=CN(C)C)c1ccccc1[N+](=O)[O-])[N+](=O)[O-]` the value was 211 to 214 °C.
`CCC(C(=O)O)c1cccc(C(=O)c2cc3ccsc3s2)c1` (configuration not stated) came in with a melting point of 143 °C.
For the molecule `Nc1ccc(-c2ccc(C(F)(F)F)cc2)cn1`, the melting point is 130 °C.
Turning to `O=C(CCc1c(C(=O)OCCN2CCOCC2)[nH]c2cc(Cl)cc(Cl)c12)OCCN1CCOCC1`, the melting point was 110 to 112 °C.
Consider `Cc1cc(N(C)C)ccc1C=Nc1cc(Cl)c(N=CN(C)C)c(Cl)c1`, for which the melting point was 64 to 65 °C.
For `CCOC(=O)COc1cc(OCC(=O)OCC)c2c(C)c(Cc3ccccc3)c(=O)n(Cc3ccccc3)c2c1` the value was 113 to 116 °C.
Molecule `Clc1cccc2c(CCN3CCCCC3)c(-c3ccccc3)[nH]c12` came in with a melting point of 178 to 179 °C.
In turn, `Oc1c2c(nn1-c1ccccn1)CCc1ccccc1-2` had a melting point of 145 to 146 °C.
`COc1cc2c(c(OC)c1OC)OCC2=O` yielded a melting point of 81 to 83 °C.
For `CC(C)(C)OC(=O)CN1C(=O)[C@@H](N2C(=O)c3ccccc3C2=O)CSc2ccccc21`, the melting point fell in the range of 181 to 184 °C.
Molecule `COc1cc(C(=O)N2CCN(C(=O)C=C(c3ccccc3)c3ccccc3)CC2)cc(OC)c1OC` showed a melting point of 148 to 150 °C.
`O=C1NC2C(CC(O)C(O)C2O)c2cc3c(c(O)c21)OCO3` (configuration not stated) registered a melting point of 182 °C.
For `CC(=O)c1cc2sc(N)c(C#N)c2s1` the value was 285 °C; for `O=C1CCc2cc(OCc3ccccc3)ccc21`, 105 to 106 °C.
`CCCc1c(OCc2nnn[nH]2)ccc(C(=O)c2ccccc2O)c1O`: the melting point lay in the range of 186 to 187 °C.
For `CSCC(=O)[C@H](Cc1ccc(Cl)cc1)NC(=O)[C@H](CC(C)C)NC(=O)OCc1ccccc1`, the melting point was in the range of 119 to 121 °C.
Molecule `Fc1ccc(Nc2ncnc3[nH]c(-c4ccc(CCl)cc4)cc23)cc1Cl` had a melting point greater than 300 °C.
In turn, `COc1ccccc1C1(O[Si](C)(C)C)C(=O)Nc2ccc(Cl)cc21` (configuration not stated) registered a melting point of 185 to 187 °C.
In the case of `Oc1cc(-c2ccc(Cl)cc2)nc2ccnn12`, the melting point fell in the range of 306 to 308 °C.
Molecule `CCOC(=O)NC1N=C(c2ccc(Cl)cc2)c2oc3ccccc3c2NC1=O` (configuration not stated) showed a melting point greater than 260 °C.
On to `COc1cc(S(C)(=O)=O)ccc1-c1nc2cnccc2[nH]1`, for which the melting point fell in the range of 234 to 235 °C.
Molecule `CC(=O)OC1CSC(Oc2cncc(-c3ccc(F)c(C#N)c3)c2)C(OC(C)=O)C1OC(C)=O` (configuration not stated) returned a melting point of 178 °C.
In turn, `CCCCOCCOc1ccc(-c2ccc(N3CCC(COC(C)=O)C3)c(C=C(C)C(=O)O)c2)cc1` (configuration not stated) returned a melting point of 110 to 111 °C.
Regarding `COc1ccc2[nH]cc(CC#N)c2c1Cl`, the melting point is 138 to 139 °C.
`CCOCc1nc2c(N)nc3cc(-c4cccnc4)ccc3c2n1CC1CCN(C(=O)OC(C)(C)C)CC1`: the melting point lay in the range of 197 to 198 °C.
For `Cc1ccc(C(=O)N2CCC(c3ccccc3)=N2)cn1` the value was 86 to 87 °C.
For `CN(C)C(=O)CCC12CC(c3ccccc31)c1ccccc12` the value was 186 to 187 °C; for `Cc1[nH]c(C#N)c(C)c1-c1nc2ccc(C(=O)c3ccccc3)cc2[nH]1`, 159 to 163 °C; for `COc1ccc(-n2cnc(-c3cccc(C(=O)O)c3)n2)cc1`, 230 to 232 °C.
Molecule `CC(C)(C)OC(=O)NCC(=O)NCc1ccc(Nc2n[nH]c3ncnc(Nc4cccc(Cl)c4)c23)cc1` yielded a melting point of 205 °C.
`CC(=CC#Cc1ccccc1)C(=O)NCCCCCC(=O)NO` showed a melting point of 135 to 137 °C.
`COc1ccc(C=CC(=O)N[C@@H](Cc2ccccc2)C(=O)CSCc2ccsc2)c(OC)c1` showed a melting point of 142 to 143 °C.
`CC(C)(C)NC(=O)c1ccccc1Cc1ccccc1` had a melting point of 91 to 92 °C.
For `CC(=O)c1cnn2c(-c3cccc(C(F)(F)F)c3)ccnc12` the value was 127 to 130 °C.
`CC1(C)CCC(C)(C)c2cc(-c3cccc(C#CC(=O)O)c3)ccc21`: the melting point fell in the range of 164 to 165 °C.
Take `O=C1c2ccccc2C(=O)N1CC(Br)(CBr)c1ccccc1` (configuration not stated): the melting point lay in the range of 162 to 163 °C.
`CON(C)C(=O)c1cc(N)c(F)cc1Cl`: the melting point is 118 °C.
For `CCOC(=O)C(C)(C)NC(=O)c1c(Cl)c2cc(Oc3ccc(C(F)(F)F)cc3)ccc2n1-c1ccc(OC(C)C)cc1`, the melting point is 135 to 137 °C.
For `CN(C)CC(=O)Nc1ccc2[nH]c(=O)c3ccccc3c2c1` the value was greater than 300 °C.
Turning to `O=C1CC2CCCCC2C(=O)C1C(=O)c1ccc(Cl)cc1[N+](=O)[O-]` (configuration not stated), the melting point was 112 °C.
As to `CC(Oc1ccc2nc(NC(=O)CCCN3CCOCC3)sc2c1)c1c(Cl)ccc(F)c1Cl` (configuration not stated), the melting point fell in the range of 141 to 145 °C.
Take `COC(=O)COc1ncccc1[N+](=O)[O-]`: the melting point was found to be 61.5 °C.
With `O=C(Nc1ccc2nc(CN3CCCC3)ccc2c1)c1ccc(N2CCCCC2=O)cc1`, the melting point lay in the range of 210 to 212 °C.
For the molecule `CC1(C)N=C(c2ccccc2Cl)c2cc([N+](=O)[O-])ccc2-n2cnnc21`, the melting point came out at 262 °C.
Molecule `N#Cc1ccccc1OCCCC(=O)O` returned a melting point of 127 to 128 °C.
For `Cc1ccccc1[C@H]1CC[C@@H](c2ccccc2)N1C(=O)CNC(=O)Nc1cccc(CC(=O)O)c1` (racemic) the value was 133 °C; for `CCCCCCCCCCCCCCOc1ccccc1CBr`, 35 to 36 °C.
The molecule `CCCCN1CCN(Cc2ccc(COc3cccc4c3CN(C3CCC(=O)NC3=O)C4=O)cc2)CC1=O` (configuration not stated) had a melting point of 138 to 140 °C.
`COc1cc(Br)c2oc(-c3ccc(OC)c(F)c3)nc2c1`: the melting point lay in the range of 175 to 177 °C.
Molecule `CS(=O)c1nc(-c2ccccc2)c(-c2ccccc2)o1` (configuration not stated) yielded a melting point of 75 to 78 °C.
